Data reported in patent US8440684B2, “Polycyclic pyrrolidine-2,5-dione derivatives as -formyl peptide receptor like-1 (FPRL-1) receptor modulators” (Allergan, Inc., priority 2011, dated 2013).

Molecular target: T1, FPRL1 (Homo sapiens, UniProt P25090)
T1 construct: expressed in transfected cells
T1 sequence (P25090 1-351): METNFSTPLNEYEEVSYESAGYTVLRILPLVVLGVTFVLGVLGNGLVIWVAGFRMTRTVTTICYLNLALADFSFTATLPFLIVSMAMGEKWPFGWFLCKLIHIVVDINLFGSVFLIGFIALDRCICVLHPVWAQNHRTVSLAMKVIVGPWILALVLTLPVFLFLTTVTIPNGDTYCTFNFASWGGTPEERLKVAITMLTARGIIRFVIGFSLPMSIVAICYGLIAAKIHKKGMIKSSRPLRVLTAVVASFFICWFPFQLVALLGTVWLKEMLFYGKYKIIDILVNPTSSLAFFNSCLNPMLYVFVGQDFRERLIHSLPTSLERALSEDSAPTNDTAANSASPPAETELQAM
Test: compound-induced calcium activity on FLIPR Tetra in CHO-Ga16 cells stably expressing FPRL1
Type: cell-based
Settings: for FPRL1 (rel. eff.): relative efficacy; for EC50: tested 0.61 to 10,000 nM
Experimental: CHO-Ga16 cells stably expressing FPRL1 were cultured in (F12, 10% FBS, 1% PSA, 400 μg/ml geneticin and 50 μg/ml hygromycin) and HEK-Gqi5 cells stable expressing FPR1 were cultured in (DMEM high glucose, 10% FBS, 1% PSA, 400 μg/ml geneticin and 50 μg/ml hygromycin). In general, the day before the experiment, 18,000 cells/well were plated in a 384-well clear bottom poly-d-lysine coated plate. The following day the screening compound-induced calcium activity was assayed on the FLIPR^Tetra. The drug plates were prepared in 384-well microplates using the EP3 and the MultiPROBE robotic liquid handling systems. Compounds were tested at concentrations ranging from 0.61 to 10,000 nM. Results are expressed as EC50 (nM) and efficacy values.

SMILES: O=C(CN1C(=O)C2C(C1=O)C1CCC2C12CC2)Nc1ccc(Br)cc1 (stereo not shown) [Compound 1, N-(4-Bromophenyl)-2-(1,3-dioxooctahydro-2H-spiro[2-aza-4,7-methanoisoindole-8,1′-cyclopropan]-2-yl)acetamide]
- FPRL1 (rel. eff.): (0.9)
- EC50: 0.118 µM

SMILES: CCc1ccc(NC(=O)CN2C(=O)C3C(C2=O)C2CCC3C23CC3)cc1 (stereo not shown) [Compound 6, 2-(1,3-dioxooctahydro-2H-spiro[2-aza-4,7-methanoisoindole-8,1′-cyclopropan]-2-yl)-N-(4-ethylphenyl)acetamide]
- FPRL1 (rel. eff.): (0.91)
- EC50: 1.15 µM

SMILES: O=C(CN1C(=O)C2C3C=CC(C3)C2C1=O)Nc1ccc(Br)cc1 (stereo not shown) [N-(4-bromophenyl)-1,3,3a,4,7,7a-hexahydro-1,3-dioxo-4,7-methano-2H-isoindole-2-acetamide, reference compound]
- FPRL1 (rel. eff.): (0.90)
- EC50: 0.575 µM

SMILES: O=C(CN1C(=O)C2CC=CCC2C1=O)Nc1ccc(Br)cc1 (stereo not shown) [N-(4-bromophenyl)-1,3,3a,4,7,7a-hexahydro-1,3-dioxo-2H-isoindole-2-acetamide, reference compound]
- FPRL1 (rel. eff.): (0.98)
- EC50: 0.395 µM

SMILES: O=C(CN1C(=O)C2C(C1=O)C1C=CC2C12CC2)Nc1ccc(Br)cc1 (stereo not shown) [Compound 12, N-(4-bromophenyl)-2-(1,3-dioxo-1,3,3a,4,7,7a-hexahydro-2H-spiro[2-aza-4,7-methanoisoindole-8,1′-cyclopropan]-2-yl)acetamide]
- FPRL1 (rel. eff.): (0.91)
- EC50: 0.812 µM

SMILES: O=C(CN1C(=O)C2C(C1=O)C1CCC2C12CC2)Nc1ccc(Cl)cc1 (stereo not shown) [Compound 3, N-(4-chlorophenyl)-2-(1,3-dioxooctahydro-2H-spiro[2-aza-4,7-methanoisoindole-8,1′-cyclopropan]-2-yl)acetamide]
- FPRL1 (rel. eff.): (1.0)
- EC50: 2.05 µM

SMILES: CSc1ccc(NC(=O)CN2C(=O)C3C(C2=O)C2CCC3C23CC3)cc1 (stereo not shown) [Compound 2, 2-(1,3-dioxooctahydro-2H-spiro[2-aza-4,7-methanoisoindole-8,1′-cyclopropan]-2-yl)-N-[4-(methylthio)phenyl]acetamide]
- FPRL1 (rel. eff.): (1.0)
- EC50: 0.336 µM

SMILES: COc1ccc(NC(=O)CN2C(=O)C3C(C2=O)C2CCC3C23CC3)cc1 (stereo not shown) [Compound 10, 2-(1,3-dioxooctahydro-2H-spiro[2-aza-4,7-methanoisoindole-8,1′-cyclopropan]-2-yl)-N-(4-methoxyphenyl)acetamide]
- FPRL1 (rel. eff.): (1.0)
- EC50: 0.267 µM

SMILES: O=C(CN1C(=O)C2C(C1=O)C1CCC2C12CC2)Nc1ccc(F)cc1 (stereo not shown) [Compound 9, 2-(1,3-dioxooctahydro-2H-spiro[2-aza-4,7-methanoisoindole-8,1′-cyclopropan]-2-yl)-N-(4-fluorophenyl)acetamide]
- FPRL1 (rel. eff.): (0.9)
- EC50: 2.32 µM

SMILES: CC(=O)c1ccc(NC(=O)CN2C(=O)C3C(C2=O)C2CCC3C23CC3)cc1 (stereo not shown) [Compound 7, N-(4-acetylphenyl)-2-(1,3-dioxooctahydro-2H-spiro[2-aza-4,7-methanoisoindole-8,1′-cyclopropan]-2-yl)acetamide]
- FPRL1 (rel. eff.): (0.63)
- EC50: 7.83 µM

SMILES: O=C(CN1C(=O)C2C(C1=O)C1CCC2C12CC2)Nc1ccc(I)cc1 (stereo not shown) [Compound 5, 2-(1,3-dioxooctahydro-2H-spiro[2-aza-4,7-methanoisoindole-8,1′-cyclopropan]-2-yl)-N-(4-iodophenyl)acetamide]
- FPRL1 (rel. eff.): (0.86)
- EC50: 2.65 µM

SMILES: O=C(CN1C(=O)C2C(C1=O)C1CCC2C12CC2)Nc1ccc(Cl)nc1 (stereo not shown) [Compound 8, N-(6-chloropyridin-3-yl)-2-(1,3-dioxooctahydro-2H-spiro[2-aza-4,7-methanoisoindole-8,1′-cyclopropan]-2-yl)acetamide]
- FPRL1 (rel. eff.): (0.86)
- EC50: 2.51 µM

SMILES: CS(=O)(=O)c1ccc(NC(=O)CN2C(=O)C3C(C2=O)C2CCC3C23CC3)cc1 (stereo not shown) [Compound 4, 2-(1,3-dioxooctahydro-2H-spiro[2-aza-4,7-methanoisoindole-8,1′-cyclopropan]-2-yl)-N-[4-(methylsulfonyl)phenyl]acetamide]
- FPRL1 (rel. eff.): (0.72)
- EC50: 3.46 µM

SMILES: CC(C(=O)Nc1ccc(Br)cc1)N1C(=O)C2C(C1=O)C1CCC2C12CC2 (stereo not shown) [Compound 11, N-(4-bromophenyl)-2-(1,3-dioxooctahydro-2H-spiro[2-aza-4,7-methanoisoindole-8,1′-cyclopropan]-2-yl)propanamide]
- FPRL1 (rel. eff.): (0.93)
- EC50: > 5 µM
